Data taken from BigSolDB 2.1.

COc1cccc(C(=O)O)c1OC
solubility (mole fraction)
Conditions | 278.15 K | 283.15 K | 288.15 K | 293.15 K | 298.15 K | 303.15 K | 308.15 K | 313.15 K | 318.15 K | 323.15 K
in 1,4-dioxane | – | – | 0.0585 | 0.069 | 0.0805 | 0.0934 | 0.11 | 0.127 | 0.148 | –
in 2-ethoxyethanol | 0.0418 | 0.0485 | 0.0552 | 0.0644 | 0.0733 | 0.084 | 0.0974 | 0.109 | 0.128 | 0.146
in acetonitrile | 0.0108 | 0.0133 | 0.0167 | 0.0204 | 0.0254 | 0.0309 | 0.0385 | 0.0474 | 0.059 | 0.0734
in ethanol | 0.0131 | 0.0165 | 0.0202 | 0.0252 | 0.0304 | 0.0384 | 0.0466 | 0.0592 | 0.0714 | 0.0884
in ethyl acetate | 0.0133 | 0.0159 | 0.0189 | 0.023 | 0.0271 | 0.0332 | 0.0391 | 0.0464 | 0.057 | 0.0685
in ethylene glycol | 0.0468 | 0.0529 | 0.0616 | 0.0708 | 0.0801 | 0.092 | 0.104 | 0.12 | 0.137 | 0.154
in isopropanol | 0.00832 | 0.0106 | 0.0138 | 0.0175 | 0.0233 | 0.0291 | 0.0384 | 0.0482 | 0.0632 | 0.0791
in isopropyl acetate | 0.00953 | 0.0111 | 0.0137 | 0.0162 | 0.0198 | 0.0237 | 0.029 | 0.0339 | 0.0425 | 0.0499
in methanol | 0.0151 | 0.0192 | 0.0229 | 0.0288 | 0.0348 | 0.0446 | 0.0535 | 0.0682 | 0.0838 | 0.101
in methyl acetate | 0.0166 | 0.0197 | 0.0236 | 0.0282 | 0.034 | 0.041 | 0.0494 | 0.0589 | 0.0719 | 0.0862
in n-butanol | 0.00922 | 0.0116 | 0.0144 | 0.0183 | 0.0219 | 0.0284 | 0.0362 | 0.0449 | 0.0562 | 0.0716
in n-butyl acetate | 0.00923 | 0.0111 | 0.0134 | 0.016 | 0.0195 | 0.0234 | 0.0286 | 0.0342 | 0.0428 | 0.0506
in n-propanol | 0.00925 | 0.0122 | 0.0151 | 0.0197 | 0.0243 | 0.0316 | 0.0386 | 0.05 | 0.0618 | 0.0793
in n-propyl acetate | 0.0106 | 0.0133 | 0.0154 | 0.0193 | 0.0224 | 0.0279 | 0.0326 | 0.0403 | 0.0468 | 0.0583
in water | 4.79e-05 | 6.1e-05 | 7.77e-05 | 0.0001 | 0.000125 | 0.000162 | 0.000202 | 0.00026 | 0.000323 | 0.000399
